Experimental data taken from article PMC4108065, “Inflammation and pancreatic cancer: molecular and functional interactions between S100A8, S100A9, NT-S100A8 and TGFβ1” (Cell Communication and Signaling : CCS, 2014).

Legend:
Type in all cases: cell-based, human
BxPC3 = assay: XTT cell viability assay, BxPC3; settings: 48 hours, TGFβ1 0.02 ng/ml, NT-S100A8 50 nM, S100A8 10 nM, S100A9 10 nM, alone or combined, at least three independent experiments in quadruplicate
Protocol: (§1) BxPC3, Capan1, MiaPaCa2, Panc1 and BxPC3-SMAD4+ cells were seeded (2000 cells per well) in 96-well cell culture plates and cultured in complete media for 24 hours. Media were then replaced with fresh cell culture media in absence (control) or in presence of TGFβ1 (0.02 ng/ml) and NT-S100A8 (50 nM), alone or combined or in absence (control) or in presence of TGFβ1 (0.02 ng/ml), S100A8 (10 nM) and S100A9 (10 nM) alone or combined. Cell growth was assessed after 48 hours using the XTT cell viability test (Roche, Milano, Italy). At least three independent experiements, each made in quadruplicate, were run. The results were expressed as percentage with respect to the median Abs450nm of control cells run in the same experimental set.

Panc1 = assay: XTT cell viability assay, Panc1; settings: 48 hours, TGFβ1 0.02 ng/ml, NT-S100A8 50 nM, S100A8 10 nM, S100A9 10 nM, alone or combined, at least three independent experiments in quadruplicate
Protocol: as §1

Capan1 = assay: XTT cell viability assay, Capan1; settings: 48 hours, TGFβ1 0.02 ng/ml, NT-S100A8 50 nM, S100A8 10 nM, S100A9 10 nM, alone or combined, at least three independent experiments in quadruplicate
Protocol: as §1

MiaPaCa2 = assay: XTT cell viability assay, MiaPaCa2; settings: 48 hours, TGFβ1 0.02 ng/ml, NT-S100A8 50 nM, S100A8 10 nM, S100A9 10 nM, alone or combined, at least three independent experiments in quadruplicate
Protocol: as §1

[1] = tested on: IκBα phosphorylation at Ser32; assay: NF-κB signaling, western blot of IκBα phosphorylation in PDAC cell lines; settings: BxPC3, Capan1, MiaPaCa2, Panc1, 10 min, 10 nM S100A8, S100A9, S100A8/A9, 50 nM NT-S100A8, 0.02 ng/ml TGFβ1
Protocol: (§2) Five million cells were seeded in Petri dishes (ø 10 cm) and cultured for 24 hours in their respective complete media prior to starting the experiments. Cells remained non-stimulated (negative control) or were stimulated with 50 mU insulin (positive control) (Insuman Rapid, Sanofi-Aventis, Deutschland, GmbH) for 10 min; in parallel, experimental cells were stimulated with 50 nM NT-S100A8, 0,02 ng/ml TGFβ1 (ProSpec-Tany TechnoGene), 10 nM S100A8 and 10 nM S100A9 alone or combined for 10 min. Following stimulations, Petri dishes were immediately transferred into an ice bath, and the cells were washed twice with cold PBS, re-suspended in 100 μl of cold lysis buffer [20 mM Tris–HCl, pH 7.5, 150 mM NaCl, 1 mM EDTA, 1% Triton-X 100, 50 mM NaF, 10 mM Na4P2O7,1 mM Na3VO4, and 10% protease inhibitor cocktail (Sigma Aldrich SRL, Milano, Italy)]. Lysates were centrifuged for 10 min at 14,000 rpm at 4°C and, in the supernatants, total proteins were measured using the Bio-Rad protein assay (Bio-Rad Laboratories, Milano, Italy). Each experiment was performed at least in triplicate.
(§3) For each sample, 40 μg proteins were electrophoresed through 4–12% NuPAGE®NovexBis-Tris SDS–PAGE Gel or 3-8% NuPAGE®NovexTris-Acetate SDS–PAGE Gel (Invitrogen S.R.L., Life Technologies, Monza, Italy) and electrophoretically transferred to Nitrocellulose Membrane (iBlot® Transfer Stack, Invitrogen S.R.L.) by means of the iBlotTMDry Blotting System (Invitrogen S.R.L.). Following incubation for 1 hour in a blocking buffer [5% low fat powder milk re-suspended in PBS-T (PBS with 0.1% Tween-20)], membranes were incubated overnight at 4°C with the primary antibodies [antiphospho IkB-α (Ser^32) (Santa Cruz Biotechnology, Inc., Santa Cruz, CA, USA); anti-phospho-Akt (Ser^473), anti-phospho-Akt (Thr^308), anti-Akt and anti-phospho-S6 Ribosomal Protein (Ser^235/236), anti-cleaved Caspase-3, anti-phospho-Stat3 Tyr^705, anti-β-actin, anti-phospho mTOR (Ser^2448, Ser^2481) (Cell Signaling Technology, Danvers, MA, USA); anti-RAGE (R&D Systems, Minneapolis, MN, USA) ] diluted 1:5000 (β-actin), 1:2000 (mTOR, cleaved Caspase-3, Stat3) or 1:3000 (all the others) in the blocking buffer. The blots, washed three times in PBS-T for 15 min, were incubated with […] anti-rabbit (Cell Signaling Technology) or anti-goat (Sigma Aldrich) secondary antibodies and then washed three times in PBS-T for 15 min and developed with the ECL Advance Western Blot Detection Kit (GE Healthcare Technologies, Milan, Italy).

[2] = tested on: mTOR Ser2481, Ser2448 and S6 Ribosomal Protein phosphorylation; assay: mTOR signaling, western blot in PDAC cell lines; settings: BxPC3, Capan1, MiaPaCa2, Panc1, 10 min, 10 nM S100A8, S100A9, S100A8/A9, 50 nM NT-S100A8, 0.02 ng/ml TGFβ1
Protocol: as §2, §3

MiaPaCa2 [Ca2+]i = assay: Intracellular calcium, fluo-4 epifluorescence, MiaPaCa2; settings: for [Ca2+]i variation per minute per cell: MiaPaCa2, 200 to 480 second interval, vs control cells, One-Way ANOVA, Bonferroni; for effect on the [Ca2+]i decrement induced by TGFβ1: MiaPaCa2, combined with 0.02 ng/ml TGFβ1, 200 to 480 second interval
Protocol: BxPC3 and MiaPaCa2 cells, seeded (80 × 10^3 cells) on coverslips that had been inserted within each well of six well culture plates, were kept in their respective complete media for 24 hours. Coverslips were then incubated for 10 min at 37°C with 3 μM fluo-4 AM (Invitrogen S.R.L.) in an imaging buffer containing 137 mM NaCl, 5 mM KCl, 1.2 mM MgCl2, 0.44 mM KH2PO4, 4.2 mM NaHCO3, 5 mM glucose, and 20 mM HEPES pH 7.4. The cells were carefully washed with the imaging buffer after its removal. Calcium oscillations were then analyzed by means of an inverted epifluorescence microscope equipped with a top stage incubator (Tokai Hit INU-F1, Tokai Hit, Shizuoka-Ken, Japan) in order to keep cells in the optimal culturing environment. As an illumination source, we used a mercury arc discharge lamp and selected excitation and emission wavelengths with an FITC filter cube (EX 465–495 DM505 EM 515–555 nm). Use was made of an 60X1.45NA objective (Nikon Instruments S.P.A., Firenze, Italy) and, in order to minimize phototoxicity and photobleaching, a back-thinned electron multiplied CCD camera C9100-13 Imagem (Hamamatsu Photonics Italia S.R.L., Milano, Italy). After the first minute, required to achieve optimal culture conditions, intracellular fluorescence was continuously monitored (3 frames/sec) for 12 min. In all experiments, […], the cells were maintained in imaging buffer for the first 2 minutes, after which they were stimulated with 10 nM S100A8, 10 nM S100A9 and 50 nM NT-S100A8, alone or in combination with 0.02 ng/ml TGFβ1. For all stimuli, additions were made directly to the microscope chamber without interrupting the recording. The fluorescence signal was quantified by measuring the mean pixel value of a manually selected cellular area for each frame of the image stack using the HCimage system (Hamamatsu Photonics Italia S.R.L.). For all the experimental conditions, at least 3 independents sets of experiments were performed.

| Substance | BxPC3 % to Control Mean±SEM (BxPC3) | Panc1 % to Control Mean± SEM (Panc1) | Capan1 % to Control Mean± SEM (Capan1) | MiaPaCa2 % to Control Mean± SEM (MiaPaCa2) | IκBα phosphorylation (Ser32) [1] | mTOR Ser2448 phosphorylation [2] | mTOR Ser2481 phosphorylation [2] | [Ca2+]i variation per minute per cell (MiaPaCa2 [Ca2+]i) | effect on the [Ca2+]i decrement induced by TGFβ1 (MiaPaCa2 [Ca2+]i) |
| --- | --- | --- | --- | --- | --- | --- | --- | --- | --- |
| S100A8: inflammatory calcium binding protein S100A8 (ProSpec-Tany TechnoGene) | 111.45±5.92 % to Control | 93.16 ± 3.65 % to Control | 96.22 ± 2.91 % to Control | 102.13± 4.93 % to Control | reduced IκBα phosphorylation in Capan1, MiaPaCa2 and Panc1, not in BxPC3 | induced mTOR Ser^2448 phosphorylation in all cell lines | Ser^2481 in BxPC3 and Capan1 | significant decrement of [Ca^2+]i | partly counteracted |
| NT-S100A8: 14 N-terminal aminoacid peptide of S100A8, isolated from PDAC tissues (MLTELEKALNSIID; UniProt P05109 1-14, looked up, fragment) |  |  |  |  | reduced IκBα phosphorylation in Capan1, MiaPaCa2 and Panc1, not in BxPC3 | inducing Ser^2481 and Ser^2448 phosphorylation in all cell lines | inducing Ser^2481 and Ser^2448 phosphorylation in all cell lines | significant decrement of [Ca^2+]i |  |
| S100A9: inflammatory calcium binding protein S100A9, S100A8 binding partner | 103.53± 5.18 % to Control | 96.72± 4.43 % to Control | 103.07 ± 2.90 % to Control | 104.38± 4.09 % to Control | reduced IκBα phosphorylation in Capan1, MiaPaCa2 and Panc1, not in BxPC3 | induced mTOR Ser^2448 phosphorylation in all cell lines | Ser^2481 in BxPC3 and Capan1 |  | completely reverted |
| TGFβ1: transforming growth factor beta 1 (ProSpec-Tany TechnoGene) | 96.85 ± 5.02 % to Control | 88.31 ± 3.68 % to Control | 104.31 ± 2.68 % to Control | 102.11 ± 4.65 % to Control | no significant effects | inducing Ser^2481 and Ser^2448 phosphorylation in all cell lines | inducing Ser^2481 and Ser^2448 phosphorylation in all cell lines | significant decrement of [Ca^2+]i |  |
